# Tested on: not listed separately
# Experiment: Phase I metabolic stability in mouse liver microsomes
# Format: in vitro ADME
# Conditions: 37° C.
# Method: (§1) Phase I metabolic stability in both mouse and human liver microsomes was performed as described previously. Rais et al. Briefly, compounds are spiked in liver microsomes (mouse, human) and incubated in an orbital shaker at 37° C. […] Compound disappearance is monitored over time using LC/MS/MS.
row,Structure (SMILES),Mouse Liver Microsome (+) NADPH % Remaining at 60 min [%]
1,"CC(=O)N[C@@H]1CCN(c2cc(C)nn3c(-c4cccs4)c(C)nc23)C1 [compound 13, (R)—N-(1-(2,6-dimethyl-3-(thiophen-2-yl)imidazo[1,2-b]pyridazin-8-yl)pyrrolidin-3-yl)acetamide]",28 ± 2
2,"CC(=O)N[C@@H]1CCN(c2cc(C)nn3c(-c4ccc(OC(F)(F)F)cc4)c(C)nc23)C1 [compound 17, (R)—N-(1-(2,6-dimethyl-3-(4-(trifluoromethoxy)phenyl)imidazo[1,2-b]pyridazin-8-yl)pyrrolidin-3-yl)acetamide]",72 ± 6
3,"COc1ccc(-c2c(C)nc3c(N4CC[C@@H](NS(=O)(=O)c5ccc(Cl)cc5)C4)cc(C)nn23)cc1OC [compound 29, (R)-4-chloro-N-(1-(3-(3,4-dimethoxyphenyl)-2,6-dimethylimidazo[1,2-b]pyridazin-8-yl)pyrrolidin-3-yl)benzenesulfonamide]",7 ± 2
4,"COc1ccc(-c2c(C)nc3c(N4CC[C@@H](NC(=O)C(F)(F)F)C4)cc(C)nn23)cc1OC [compound 35, (R)—N-(1-(3-(3,4-dimethoxyphenyl)-2,6-dimethylimidazo[1,2-b]pyridazin-8-yl)pyrrolidin-3-yl)-2,2,2-trifluoroacetamide]",117 ± 8
5,"COc1ccc(-c2c(C)nc3c(N4CC[C@@H](NS(=O)(=O)c5ccccc5)C4)cc(C)nn23)cc1OC [compound 28, (R)—N-(1-(3-(3,4-dimethoxyphenyl)-2,6-dimethylimidazo[1,2-b]pyridazin-8-yl)pyrrolidin-3-yl)benzenesulfonamide]",20 ± 1
6,"COc1ccc(-c2c(C)nc3c(N4CC[C@@H](NS(=O)(=O)c5ccc(C(C)=O)cc5)C4)cc(C)nn23)cc1OC [compound 23, (R)-4-acetyl-N-(1-(3-(3,4-dimethoxyphenyl)-2,6-dimethylimidazo[1,2-b]pyridazin-8-yl)pyrrolidin-3-yl)benzenesulfonamide]",5 ± 1
7,"COc1ccc(-c2c(C)nc3c(N4CC[C@@H](NS(=O)(=O)c5ccc(C)cc5)C4)cc(C)nn23)cc1OC [compound 22, (R)—N-(1-(3-(3,4-dimethoxyphenyl)-2,6-dimethylimidazo[1,2-b]pyridazin-8-yl)pyrrolidin-3-yl)-4-methylbenzenesulfonamide]",2 ± 1
8,"COc1ccc(-c2c(C)nc3c(N4CC[C@@H](NC(=O)C(F)(F)c5ccccc5)C4)cc(C)nn23)cc1OC [compound 37, (R)—N-(1-(3-(3,4-dimethoxyphenyl)-2,6-dimethylimidazo[1,2-b]pyridazin-8-yl)pyrrolidin-3-yl)-2,2-difluoro-2-phenylacetamide]",6 ± 1

# Tested on: not listed separately
# Experiment: Phase I metabolic stability in human liver microsomes
# Format: in vitro ADME
# Conditions: 37° C.
# Method: as §1
row,Structure (SMILES),Human Liver Microsome (+) NADPH Remaining at 60 min [%]
1,"CC(=O)N[C@@H]1CCN(c2cc(C)nn3c(-c4cccs4)c(C)nc23)C1 [compound 13, (R)—N-(1-(2,6-dimethyl-3-(thiophen-2-yl)imidazo[1,2-b]pyridazin-8-yl)pyrrolidin-3-yl)acetamide]",50 ± 4
2,"CC(=O)N[C@@H]1CCN(c2cc(C)nn3c(-c4ccc(OC(F)(F)F)cc4)c(C)nc23)C1 [compound 17, (R)—N-(1-(2,6-dimethyl-3-(4-(trifluoromethoxy)phenyl)imidazo[1,2-b]pyridazin-8-yl)pyrrolidin-3-yl)acetamide]",114 ± 4
3,"COc1ccc(-c2c(C)nc3c(N4CC[C@@H](NS(=O)(=O)c5ccc(Cl)cc5)C4)cc(C)nn23)cc1OC [compound 29, (R)-4-chloro-N-(1-(3-(3,4-dimethoxyphenyl)-2,6-dimethylimidazo[1,2-b]pyridazin-8-yl)pyrrolidin-3-yl)benzenesulfonamide]",32 ± 6
4,"COc1ccc(-c2c(C)nc3c(N4CC[C@@H](NC(=O)C(F)(F)F)C4)cc(C)nn23)cc1OC [compound 35, (R)—N-(1-(3-(3,4-dimethoxyphenyl)-2,6-dimethylimidazo[1,2-b]pyridazin-8-yl)pyrrolidin-3-yl)-2,2,2-trifluoroacetamide]",113 ± 8
5,"COc1ccc(-c2c(C)nc3c(N4CC[C@@H](NS(=O)(=O)c5ccccc5)C4)cc(C)nn23)cc1OC [compound 28, (R)—N-(1-(3-(3,4-dimethoxyphenyl)-2,6-dimethylimidazo[1,2-b]pyridazin-8-yl)pyrrolidin-3-yl)benzenesulfonamide]",43 ± 6
6,"COc1ccc(-c2c(C)nc3c(N4CC[C@@H](NS(=O)(=O)c5ccc(C(C)=O)cc5)C4)cc(C)nn23)cc1OC [compound 23, (R)-4-acetyl-N-(1-(3-(3,4-dimethoxyphenyl)-2,6-dimethylimidazo[1,2-b]pyridazin-8-yl)pyrrolidin-3-yl)benzenesulfonamide]",12 ± 3
7,"COc1ccc(-c2c(C)nc3c(N4CC[C@@H](NS(=O)(=O)c5ccc(C)cc5)C4)cc(C)nn23)cc1OC [compound 22, (R)—N-(1-(3-(3,4-dimethoxyphenyl)-2,6-dimethylimidazo[1,2-b]pyridazin-8-yl)pyrrolidin-3-yl)-4-methylbenzenesulfonamide]",29 ± 1
8,"COc1ccc(-c2c(C)nc3c(N4CC[C@@H](NC(=O)C(F)(F)c5ccccc5)C4)cc(C)nn23)cc1OC [compound 37, (R)—N-(1-(3-(3,4-dimethoxyphenyl)-2,6-dimethylimidazo[1,2-b]pyridazin-8-yl)pyrrolidin-3-yl)-2,2-difluoro-2-phenylacetamide]",20 ± 2

# Biological target: human nSMase2 (Homo sapiens (Human), UniProt Q9NY59)
# Sequence (Q9NY59 whole entry): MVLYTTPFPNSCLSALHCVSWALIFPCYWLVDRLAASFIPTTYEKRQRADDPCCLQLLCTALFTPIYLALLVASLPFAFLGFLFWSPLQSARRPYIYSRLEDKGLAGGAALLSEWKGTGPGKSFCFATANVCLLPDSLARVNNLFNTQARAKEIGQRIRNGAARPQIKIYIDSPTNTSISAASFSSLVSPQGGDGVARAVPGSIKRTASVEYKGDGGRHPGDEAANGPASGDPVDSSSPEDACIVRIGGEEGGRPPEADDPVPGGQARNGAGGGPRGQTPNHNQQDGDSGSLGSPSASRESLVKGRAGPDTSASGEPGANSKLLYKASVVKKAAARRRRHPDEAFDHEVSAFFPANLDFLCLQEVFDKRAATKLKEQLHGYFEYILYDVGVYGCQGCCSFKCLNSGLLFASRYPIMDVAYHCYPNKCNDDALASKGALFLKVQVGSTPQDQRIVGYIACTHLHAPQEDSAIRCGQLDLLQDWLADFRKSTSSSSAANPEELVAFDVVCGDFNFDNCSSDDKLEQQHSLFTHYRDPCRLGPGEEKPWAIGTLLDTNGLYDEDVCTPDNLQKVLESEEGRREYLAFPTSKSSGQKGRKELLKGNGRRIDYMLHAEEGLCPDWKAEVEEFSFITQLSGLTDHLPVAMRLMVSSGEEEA
# Experiment: Human nSMase2 fluorescence-based activity assay
# Format: biochemical
# Conditions: inhibition of nSMase2, IC50 category A-D; read-out: Activity*
# Description: Figuera-Losada, et al. Lysate of cells expressing recombinant nSMase2 is used to catalyze the hydrolysis of sphingomyelin (SM) to ceramide and phosphorylcholine.
row,Structure (SMILES),IC50 [µM]
1,COc1ccc(-n2cnc3c(N4CC[C@@H](NC(C)=O)C4)nc(C)nc32)cc1OC [2-PROV],> 100
2,COc1ccc(-n2c(C)nc3c(N4CC[C@@H](NC(C)=O)C4)ncnc32)cc1OC [5-PROV],> 100
3,COc1ccc(-c2c3nc(C)nc(N4CC[C@@H](NC(C)=O)C4)c3nn2C)cc1OC [12-PROV],> 100
4,COc1ccc(-c2c(C)oc3c(N4CC[C@@H](NC(C)=O)C4)cc(C)nc23)cc1OC [8-PROV],> 100
5,COc1ccc(-c2scc3c(N4CC[C@@H](NC(C)=O)C4)nc(Cl)nc23)cc1OC [26-PROV],> 100
6,COc1ccc(-c2c(C)sc3c(N4CC[C@@H](NC(C)=O)C4)nc(C)nc23)cc1OC [29a-PROV],> 100
7,COc1ccc(-c2csc3c(N4CC[C@@H](NC(C)=O)C4)ncnc23)cc1OC [27-PROV],> 100
8,COc1ccc(-c2nn(C)c3c(N4CC[C@@H](NC(C)=O)C4)nc(C)nc23)cc1OC [13-PROV],> 100
9,COc1ccc(-c2scc3c(N4CC[C@@H](NC(C)=O)C4)nc(C)nc23)cc1OC [29b-PROV],> 100
10,COc1ccc(-c2c(C)nn3c(N4CC[C@@H](NC(C)=O)C4)cc(C)nc23)cc1OC [4-PROV],> 100
11,COc1ccc(-c2c(C)sc3c(N4CC[C@@H](NC(C)=O)C4)ncnc23)cc1OC [28-PROV],> 100
12,COc1ccc(-c2csc3c(N4CC[C@@H](NC(C)=O)C4)nc(Cl)nc23)cc1OC [24-PROV],> 100
13,COc1ccc(-c2c(C)sc3c(N4CC[C@@H](NC(C)=O)C4)nc(Cl)nc23)cc1OC [25-PROV],> 100
14,COc1ccc(-c2c(C)nn3c(N4CC[C@@H](NC(C)=O)C4)nc(C)nc23)cc1OC [36-PROV],> 100
15,COc1ccc(-n2c(C)nc3c(N4CC[C@@H](NC(C)=O)C4)nc(C)nc32)cc1OC [3-PROV],> 100
16,COc1ccc(-n2cnc3c(N4CC[C@@H](NC(C)=O)C4)ncnc32)cc1OC [6-PROV],> 100
17,COc1ccc(-n2ncc3c(N4CC[C@@H](NC(C)=O)C4)nc(C)nc32)cc1OC [10-PROV],> 100
18,COc1ccc(-c2csc3c(N4CC[C@@H](NC(C)=O)C4)nc(C)nc23)cc1OC [30-PROV],> 100

# Same assay, conditions: inhibition of nSMase2; read-out: IC50
row,Structure (SMILES),IC50 [µM]
1,COc1ccc(-c2c(C)nc3c(N4CC[C@@H](NC(C)=O)C4)cc(Cl)nn23)cc1 [11-PROV],> 100
2,CC(=O)N[C@@H]1CCN(c2cc(Cl)nn3cc(C)nc23)C1 [9-PROV],> 100
3,CC(=O)N[C@@H]1CCN(c2cc(C)nn3c(-c4cccc(S(C)(=O)=O)c4)c(C)nc23)C1 [42-PROV],> 1
4,CC(=O)N[C@@H]1CCN(c2cc(C)nn3c(-c4ccc5c(c4)OCO5)c(C)nc23)C1 [40-PROV],≤ 1
5,CC(=O)Nc1cccc(-c2c(C)nc3c(N4CC[C@@H](NC(C)=O)C4)cc(C)nn23)c1 [22-PROV],> 1
6,CC(=O)N[C@@H]1CCN(c2cc(C)nn3c(C)c(C)nc23)C1 [48-PROV],> 1
7,CC(=O)N[C@@H]1CCN(c2cc(C)nn3c(I)c(C)nc23)C1 [23-PROV],> 10
8,CC(=O)Nc1cccc(-c2c(C)nc3c(N4CC[C@@H](NC(C)=O)C4)cc(Cl)nn23)c1 [19-PROV],> 100
9,CC(=O)N[C@@H]1CCN(c2cc(Cl)nn3c(-c4ccc(F)cc4)c(C)nc23)C1 [18-PROV],> 100
10,CC(=O)N[C@@H]1CCN(c2ccnn3cc(C)nc23)C1 [15-PROV],> 10
11,COc1cccc(-c2c(C)nc3c(N4CC[C@@H](NC(C)=O)C4)cc(C)nn23)c1 [20-PROV],> 1
12,COc1cc(N2CC[C@@H](NC(C)=O)C2)c2nc(C)c(-c3ccc(OC)c(OC)c3)n2n1 [38-PROV],> 1
13,CC(=O)N[C@@H]1CCN(c2cc(C)nn3c(-c4ccc(O)cc4)c(C)nc23)C1 [47-PROV],≤ 1
14,COc1cccc(-c2c(C)nc3c(N4CC[C@@H](NC(C)=O)C4)cc(Cl)nn23)c1 [14-PROV],> 100
